The text below walks through data of article PMC7906907, “Targeting STAT3 by a small molecule suppresses pancreatic cancer progression” (Oncogene, 2021).

Bounds are passed on as bounds.

For assay [1], the system named is PAN02-luc. Kind of assay: Pancreatic cancer liver metastatic mouse model. The assay is classed as in vivo, C57BL/6 mice. As for the experimental part: C57BL/6 mice were intrasplenically injected with luciferase-expressing PAN02 cells (PAN02-luc) in matrigel and tumor growth was assessed (A) and quantified (B) by bioluminescent imaging weekly. […] C After 4 weeks, mice were sacrificed and livers were imaged. D The body weight of C57BL/6 tumor-bearing mice were measured weekly.
C57BL/6, male, 8-week-old mice were obtained from the Animal Center of East China Normal University. All animal experimental protocols were approved by the Animal Investigation Committee of the Institute of Biomedical Sciences, East China Normal University. PAN02 cells that stably expressed luciferase (PAN02-luc) were embedded in Matrigel (BD Biosciences) and intrasplenically injected into mice. Tumors were allowed to grow for 1 week and treatment of the mice with either compound or control was started after grouping of the mice according to average bioluminescence. The IVIS Imaging System (Xenogen Corporation) was used to monitor pancreatic tumor growth and metastasis. Images and measurements of bioluminescent signals were acquired and analyzed using Living Image and Xenogen software.

Assay [2] deals with PAN02-luc. Kind of assay: Orthotopic pancreatic cancer tumor model. The format is in vivo, C57BL/6 mice. Conditions: week 4, C188-9 group. As for the experimental part:
Fig. 7 N4 inhibits tumor growth in an orthotopic pancreatic cancer model. C57BL/6 mice were injected the tail of the pancreas with luciferase-expressing PAN02 cells (PAN02-luc) in matrigel and tumor growth was assessed (A) and quantified (B) by bioluminescent imaging weekly. Data represent the mean ± SD; *P < 0.05, **P < 0.01, ***P < 0.001, ****P < 0.0001, n.s. not significant by one-way ANOVA followed by multiple-comparison tests. (n = 5 mice per group) C After 4 weeks, mice were sacrificed and the pancreas were imaged. The tumor of pancreas were photographed (D) and weighted (E), scale bar, 0.5 cm.
Briefly, specimens of tumor tissue from xenograft models and orthotopic models were fixed with 4% paraformaldehyde solution at 4 °C overnight. […] Then, according to the manufacturer’s instructions (SK-4100; Vector laboratories), the avidin-biotin peroxidase complex was used, followed by colorimetric detection using DAB. Finally, hematoxylin was used to counterstain the sections and coverslips were mounted.
C57BL/6 mice, male, 4–6 week old were obtained from the Animal Center of East China Normal University. All animal experimental protocols were approved by the Animal Investigation Committee of the Institute of Biomedical Sciences, East China Normal University. PAN02 cells that stably expressed luciferase (PAN02-luc) were embedded in Matrigel (BD Biosciences) were injected with 5 × 10^5 in the tail of the pancreas. On the next day (day 0), the mice were subjected to bioluminescent imaging and divided into four groups according to the luciferase luminescence value. Mice were treated with intraperitoneal injection of indicated compound or drug. Tumor growth was analyzed once a week by an IVIS Imaging System (Xenogen Corporation, Alameda, CA) and end of study tumor weight was determined immediately postmortem. […] Images and measurements of bioluminescent signals were acquired and analyzed using Living Image and Xenogen software.

The target of assay [3] is His-STAT3^127-722 protein (Homo sapiens, UniProt P40763). Kind of assay: Fluorescence polarization (FP) assay, STAT3-phosphopeptide interaction. The format is binding. More on the design: We purified amino acids 127–722 of the STAT3 protein for this assay; made in house. Conditions: Supplementary Table 1; inhibition of STAT3 dimerization in FP assay; read-out: FP assay (IC50 μM). Background: Polarisation of emitted light reports the rotation of a fluorescent probe.
Description: A Purified STAT3 protein was incubated with labeled phosphopeptide, 5-carboxyfluorescein-GpYLPQTV-NH2 for 1 h at 37 °C. FP signals were measured, and the data were analyzed using Graph Pad 7.0 software. […] C Different concentrations of N4 were pre-incubated with recombined STAT3 protein for 1 h, then 10 nM of labeled peptide was added for 1 h. The IC50 was calculated using Graph Pad 7.0.
The labeled phosphopeptide: 5-carboxyfluorescein-GpYLPQTV-NH2 (where pY represents phospho-Tyr) was used as the STAT3 binding probe. To evaluate the effect of compounds in inhibiting STAT3-peptide interaction, serial dilutions of the STAT3 competitors were prepared. The diluted compounds were added to the reaction mixture in 100 μl of FP buffer (50 mM HEPES, pH 7.5, 150 mM NaCl, 0.1% NP-40, and 1 mM dithiothreitol) containing 500 nM his-STAT3^127–722 protein for pre-incubation at 37 °C for 1 h. Then, 10 nM of the labeled peptide was added and incubated for 1 h. After incubation, FP was measured on a Cytation^TM 5 cell imaging multi-mode Reader (BioTek) using excitation and emission wavelengths of 480 nm and 535 nm, respectively. Each reaction was repeated two or three times. Binding or competitive parameters were calculated from a nonlinear regression using GraphPad Prism 7.0.

A further assay deals with T1, STAT3^127–722 protein (Homo sapiens, UniProt P40763).
T1 construct: made in house
Description: Surface plasmon resonance (SPR) assay. The format is binding. Conditions: SPR. Here is the method:
Surface plasmon resonance (SPR) analysis was conducted with a Biacore T200 instrument (GE Healthcare) with CM5 sensor chip (GE Healthcare). To test N4 binding of STAT3^127–722 protein, serially diluted concentrations of N4 were injected into the flow system. Experiments were conducted using phosphate buffered saline (PBS) and the analyte was injected at the flow rate of 30 μL/min. The association time was 60 s and the dissociation time was 30 s. Since N4 was dissolved in PBS containing 5% dimethyl sulfoxide and a solvent correction assay was performed to adjust the results. STAT3^127–722 protein was immobilized on the sensor chip (CM5) using the amine-coupling method according to standard protocols. N4 or Stattic at various concentrations were injected into the flow system. […] The KD values were calculated with the kinetics and affinity analysis option of Biacore T200 plus evaluation software (version 3.0).
In general terms: SPR reads the build-up and loss of mass on a sensor chip optically.

T1 sequence (P40763 127-722): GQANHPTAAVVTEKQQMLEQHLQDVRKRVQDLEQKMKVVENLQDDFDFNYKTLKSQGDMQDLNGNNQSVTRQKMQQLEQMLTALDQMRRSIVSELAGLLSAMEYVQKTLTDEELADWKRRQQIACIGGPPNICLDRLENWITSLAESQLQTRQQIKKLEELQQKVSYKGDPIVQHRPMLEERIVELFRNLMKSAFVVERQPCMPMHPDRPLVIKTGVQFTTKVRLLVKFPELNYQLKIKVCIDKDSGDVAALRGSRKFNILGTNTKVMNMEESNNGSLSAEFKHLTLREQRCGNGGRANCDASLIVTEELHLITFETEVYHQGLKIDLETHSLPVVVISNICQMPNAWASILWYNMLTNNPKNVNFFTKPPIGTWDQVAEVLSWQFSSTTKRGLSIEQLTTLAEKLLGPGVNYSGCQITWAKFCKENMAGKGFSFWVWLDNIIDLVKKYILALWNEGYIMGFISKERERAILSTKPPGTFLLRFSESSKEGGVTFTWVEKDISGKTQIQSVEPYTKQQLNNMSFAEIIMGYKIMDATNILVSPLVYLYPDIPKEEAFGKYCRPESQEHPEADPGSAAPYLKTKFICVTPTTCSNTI
Chain of His-STAT3^127-722 protein (P40763 127-722): as above

On to `COc1ccc(S(=O)(=O)Nc2cc(-c3c(O)ccc4ccccc34)c(O)c3ccccc23)cc1` [C188-9, reference compound], for which, in the assay on PAN02-luc [1] (C188-9 group, n = 5), the “all mice died by week” value is on record as no more than 6 week. For the same compound, the “tumor metastasis suppressed compared with the control group” value with PAN02-luc [1] (week 4, C188-9 group) is 30.65%. Moreover, in the assay with PAN02-luc [2], the “tumor volume suppressed compared with the control group” value turned out to be 48.23%.

Take `O=[N+]([O-])c1ccc2c(c1)S(=O)(=O)C=C2` [Stattic, reference compound]: in assay [3], the half-inhibitory concentration (IC50) (in general, the concentration needed to halve the response being measured) was determined as 4.99 µM. In addition, the dissociation constant (Kd) (as a rule, the concentration at which binding is half-saturated) on STAT3^127–722 protein (STAT3^127–722 immobilized on CM5 chip, 25 °C) amounted to 9.62 µM; on STAT3^127–722 protein (value given in figure), 9.62 µM.
